Data from patent publication US9156791B2, “Pyrazole compounds acting against allergic, immune and inflammatory conditions” (Glaxo Group Limited, priority 2010, dated 2015).

Tests used:
[1] = In vitro microsomal clearance, human; format: in vitro ADME
[2] = In vitro microsomal clearance, rat; format: in vitro ADME
[3] = In vitro microsomal clearance, dog; format: in vitro ADME; details: Dog (Beagle)
ICRAC current = experiment: ICRAC assay: thapsigargin-induced calcium influx in Jurkat E6-1 cells (Fluo-4, FLIPR); format: cell-based; details: Homo sapiens, thapsigargin 5 μM, calcium add-back, inhibition of maximal fluorescence signal
Method: This ICRAC assay uses the SERCA inhibitor thapsigargin to produce calcium depletion and activate an ICRAC current. […] Changes in intracellular calcium levels are determined by the inclusion of the calcium sensitive fluorescent dye Fluo-4 and the use of the FLIPR detection system. Inhibitors of ICRAC would be expected to decrease the calcium influx upon calcium add-back, thus reducing fluorescent signal.
Jurkat E6-1 is an established immortalised T lymphocyte cell line previously shown to express a functional ICRAC current. Jurkat cells grow in suspension, are cultured in DMEM+10% FBS, maintained in T175 flasks at 37° C./5% CO2, and are subcultured twice a week with either 1:10-1:20 splits. 1 confluent T175 yields 100 ml of approximately 2×10^6 cells/ml.
Loading buffer contains; NaCl 145 mM, KCl 2.5 mM, HEPES 10 mM, Glucose 10 mM, MgCl2 1.2 mM, made up with water, then pH adjusted to 7.4 using NaOH 1 M. Finally Fluo-4AM & brilliant black are added to give a final assay concentration of 2 μM and 250 μM respectively. […]
The required seeding density for a 384 plate is 20,000 cells per well. […] Plates are then transferred to the FLIPR which initially measures baseline fluorescence, followed by any increase in fluorescence evoked by the online addition of a 6 mM (1.2 mM FAC) calcium solution. […]

CIint [1] [mL/min g liver] | CIint ([2]; Rat (CD)) [mL/min g liver] | CIint ([2]; Rat (Wistar Han)) [mL/min g liver] | CIint [3] [mL/min g liver] | IC50 (ICRAC current) [µM] | SMILES
<0.5 | 0.95 | 1.16 | 0.80 |  | [2H]C([2H])(c1c(F)cccc1C(F)(F)F)n1cc(NC(=O)c2c(F)cccc2F)cn1 [Example 3, 2,6-Difluoro-N-(1-(2-fluoro-6-(trifluoromethyl)-d2-benzyl)-1H-pyrazol-4-yl)benzamide]
0.80 | 1.67 | 2.05 | 0.98 | 3.16 | O=C(Nc1cnn(Cc2c(F)cccc2C(F)(F)F)c1)c1c(F)cccc1F [Example 1, 2,6-Difluoro-N-(1-{[2-fluoro-6-(trifluoromethyl)phenyl]methyl}-1H-pyrazol-4-yl)benzamide]
